Measured values: ChEMBL document CHEMBL3600317, “In silico investigation of FOXM1 binding and novel inhibitors in epithelial ovarian cancer” (Bioorg Med Chem, 2015)
pIC50: −log10 of the molar value. Calls of active or inactive are those of the source. The calls are words filed in the database; no cut-off is given here.

Experiments:
[1] = tested on: OVCAR-3; experiment: Inhibition of FOXM1 protein expression in human OVCAR3 cells at 1 uM by Western blot analysis; format: functional, cell-based
[2] = tested on: SK-OV-3; experiment: Inhibition of FOXM1 mRNA expression in human SKOV3 cells at 1 uM by RT-PCR analysis; format: functional, cell-based
[3] = tested on: ES2; experiment: Inhibition of CCNB1 mRNA expression in human ES2 cells at 1 uM by RT-PCR analysis; format: functional, cell-based
[4] = Cytotoxicity against human ES2 cells after 72 hrs by sulforhodamine B assay; format: functional, cell-based; conditions: ES-2, 72 h
[5] = tested on: OVCAR-3; experiment: Inhibition of CCNB1 protein expression in human OVCAR3 cells at 1 uM by Western blot analysis; format: functional, cell-based
[6] = tested on: OVCAR-3; experiment: Cytotoxicity against human OVCAR3 cells after 72 hrs by sulforhodamine B assay; format: functional, cell-based; conditions: OVCAR-3, 72 h
[7] = tested on: ES2; experiment: Inhibition of CDC25B mRNA expression in human ES2 cells at 1 uM by RT-PCR analysis; format: functional, cell-based
[8] = tested on: SK-OV-3; experiment: Inhibition of FOXM1 protein expression in human SKOV3 cells at 1 uM by Western blot analysis; format: functional, cell-based
[9] = tested on: SK-OV-3; experiment: Cytotoxicity against human SKOV3 cells after 72 hrs by sulforhodamine B assay; format: functional, cell-based; conditions: SK-OV-3, 72 h
[10] = tested on: SK-OV-3; experiment: Inhibition of CCNB1 mRNA expression in human SKOV3 cells at 1 uM by RT-PCR analysis; format: functional, cell-based
[11] = tested on: ES2; experiment: Inhibition of CCNB1 protein expression in human ES2 cells at 1 uM by Western blot analysis; format: functional, cell-based
[12] = tested on: SK-OV-3; experiment: Inhibition of CCNB1 protein expression in human SKOV3 cells at 1 uM by Western blot analysis; format: functional, cell-based
[13] = tested on: ES2; experiment: Inhibition of FOXM1 mRNA expression in human ES2 cells at 1 uM by RT-PCR analysis; format: functional, cell-based
[14] = tested on: SK-OV-3; experiment: Inhibition of CDC25B mRNA expression in human SKOV3 cells at 1 uM by RT-PCR analysis; format: functional, cell-based
[15] = tested on: ES2; experiment: Inhibition of FOXM1 protein expression in human ES2 cells at 1 uM by Western blot analysis; format: functional, cell-based
[16] = tested on: OVCAR-3; experiment: Cytotoxicity against human OVCAR3 cells at 10 uM after 72 hrs by sulforhodamine B assay; format: functional
[17] = tested on: SK-OV-3; experiment: Cytotoxicity against human SKOV3 cells at 10 uM after 72 hrs by sulforhodamine B assay; format: functional
[18] = tested on: ES2; experiment: Cytotoxicity against human ES2 cells at 10 uM after 72 hrs by sulforhodamine B assay; format: functional, cell-based
[19] = tested on: SK-OV-3; experiment: Cytotoxicity against human SKOV3 cells at 1 nM to 100 uM after 72 hrs by sulforhodamine B assay; format: functional, cell-based
[20] = tested on: OVCAR-3; experiment: Cytotoxicity against human OVCAR3 cells at 1 nM to 100 uM after 72 hrs by sulforhodamine B assay; format: functional, cell-based
[21] = tested on: ES2; experiment: Cytotoxicity against human ES2 cells at 1 nM to 100 uM after 72 hrs by sulforhodamine B assay; format: functional, cell-based

c1ccc(Nc2cc3ccccc3c3ccccc23)cc1
inhibition [1]: Active
inhibition [2]: Active
inhibition [3]: Active
pIC50 [4]: 6.00
inhibition [5]: Active
pIC50 [6]: 6.00
inhibition [7]: Active
inhibition [8]: Active
pIC50 [9]: 6.00
inhibition [10]: Active
inhibition [11]: Active
inhibition [12]: Active
inhibition [13]: Active
inhibition [14]: Active
inhibition [15]: Active

O=C(Nc1ccc2ncccc2c1)Nc1ccc2ncccc2c1
Activity [16]: 20%
Activity [17]: 20%
Activity [18]: inactive

CC(=O)Nc1ccccc1[N+](=O)[O-]
Activity [19]: inactive
Activity [20]: inactive
Activity [21]: inactive
